Laboratory results taken from article PMC8362065, “Easily Available, Amphiphilic Diiron Cyclopentadienyl Complexes Exhibit in Vitro Anticancer Activity in 2D and 3D Human Cancer Cells through Redox Modulation Triggered by CO Release” (Chemistry (Weinheim an Der Bergstrasse, Germany), 2021).

Key:
HEK293 noncancer cells = experiment: Intracellular CO release, fluorescent CO probe; type: cell-based, human; details: 20 μM, 30 min, fluorescent probe (Figure 4B)
Experimental: (§1) Figure 4 Intracellular detection of iron and carbon monoxide. A) Cellular uptake in PSN‐1 and HEK293 cells; cells were incubated with 50 μM of complexes for 24 h, and the cellular iron content was detected by GFAAS analysis. B) Intracellular CO levels were determined by using a fluorescent probe (BioTracker Carbon Monoxide Probe 1 Live Cell Dye®, Merck, Germany) after 30 min of treatment of PSN‐1 or HEK293 cells with 20 μM [2C]CF3SO3 and [2D]CF3SO3, or 20 μM CORM‐401 as positive control. ** P<0.01, * P<0.05.
(§2) Additional studies were conducted in order to elucidate the mode of action underlying the cell killing effect of the newly synthesized diiron complexes in cancer cells. In particular, based on the evidence of their tendency to slowly release CO in aqueous media (see section on solubility, partition coefficient, stability in aqueous media), we evaluated the ability of the most performant complexes [2C]CF3SO3 and [2D]CF3SO3 to release carbon monoxide inside PSN‐1 pancreatic cancer cells and HEK293 noncancer cells. A fluorometric test was conducted over a short time interval (30 min) by means of a CO sensing dye (Figure 4B). […] The relatively fast release of carbon monoxide within the cell might be associated to the presence of a consistent amount and variety of biological substrates, which can quicken the formation of CO substitution diiron products. As a matter of fact, it is well documented that [2E–F]CF3SO3 are susceptible to replacement of one terminal CO ligand by suitable C‐, P‐, S‐ and N‐donors to give adducts of general formula [Fe2Cp2(CO)(L)(μ‐CO){μ‐CNR(Me)}]^0/+.[[15b], [16a], [20]] Although the nature of L in the cell context is far from being clarified, it is reasonable to speculate that CO release is readily operative via such substitution pathway. However, an acceleration of the route leading to the extensive decomposition of the diiron scaffold (elimination of three COs per complex), as observed in aqueous media, might also contribute.
(§3) Intracellular CO release. PSN‐1 cell (1×10^4) were seeded in 96‐well plates. After 24 h, cells were treated with 20 μM of tested complexes or CORM‐401 (Merck) for […] at 37 °C and followed by 30 min incubation with a fluorescent probe BioTracker Carbon Monoxide Probe 1 Live Cell Dye® (Merck). The intracellular fluorescence, indicative of CO accumulation in cells, was quantified using a VICTOR X3 (PerkinElmer) plate reader.

[1] = tested on: PSN‐1 pancreatic cancer cells; experiment: Intracellular CO release, fluorescent CO probe; type: cell-based, human; details: PSN‐1 cells, 20 μM, 30 min, fluorescent probe (Figure 4B)
Experimental: as §1, §2, §3

PSN‐1 cells = experiment: Mitochondrial membrane potential; type: cell-based, human; details: 24 h (Figure 5B)
Text: Iron is a redox active metal that can generate ROS in cells via the Fenton reaction, thus inducing cellular damage and ultimately leading to cell death.[40] […] Based on this premises, we evaluated the effects induced by the diiron complexes on the mitochondria activity and the cellular redox environment. More precisely, we investigated the ROS production and the alteration of the mitochondrial membrane potential. […] The time‐dependent ROS basal production is probably associated to more than one phenomenon. First of all, the progressive disruption of the diiron structure leads to the extrusion of the Fe^I centres, which are expected to subsequently convert into Fe^III (in fact, slow precipitation of iron(III) oxides has been recognized from water solution, see above). Otherwise, based on previous voltammetric measurements on [2E–F]CF3SO3,[41] oxidation of iron enclosed in the complex is out of the range of biologically relevant potentials. […]
Figure 5 Effects induced by compounds [2C]CF3SO3 and [2D]CF3SO3 at the mitochondrial level. […] The fluorescence of DCF was measured at λ ex=485 nm and λ em=527 nm. […] Fluorescence was estimated at λ ex=490 nm and λ em=590 nm. […]
Mitochondrial membrane potential (ΔΨ). […] Fluorescence intensity was estimated using a VICTOR X3 (PerkinElmer, USA) plate reader at λ ex=490 and λ em=590 nm. […]

[2] = tested on: TrxR in human pancreatic PSN‐1 cancer cells; experiment: TrxR activity in treated cells, NADPH-dependent reduction of DTNB; type: cell-based; details: PSN‐1 cells, 25 μM, 24 h
Experimental: Figure 6 Effects of compounds [2C]CF3SO3, [2D]CF3SO3 and Auranofin as positive control on TrxR in human pancreatic cells. […] Afterwards, cells were washed twice with PBS and lysed. TrxR activity was tested by measuring the NADPH‐dependent reduction of DTNB. * P<0.05.

Substance | Intracellular CO levels (HEK293 noncancer cells) | Intracellular CO levels [1] | Cells with depolarized mitochondria (mitochondrial membrane potential) (PSN‐1 cells) | residual TrxR cellular activity [2] [%]
[Fe2Cp2(CO)2(μ‐CO){μ‐CNMe(4‐C6H4OMe)}]CF3SO3 [[2D]CF3SO3] | lower levels of CO were detected | effective in significantly release CO | significant dose‐dependent increase of cells with depolarized mitochondria | 39
[Fe2Cp2(CO)2(μ‐CO){μ‐CNMe(C6H11)}]X [[2C]CF3SO3] | lower levels of CO were detected | effective in significantly release CO | significant dose‐dependent increase of cells with depolarized mitochondria | 57
